Results as given in patent US9353048B2, “Compound as KCNQ potassium channel agonist, preparation method therefor and use thereof” (SHANGHAI INSTITUTE OF MATERIA MEDICA, CHINESE ACADEMY OF …, priority 2011, dated 2016).
Where a name gives a salt, the structure may show the parent alone.

System: KCNQ channels
Experiment: Whole-cell voltage-clamp electrophysiological recording in CHO cells transfected with KCNQ channels
Format: cell-based
Settings: for I/I0: activation multiple, maximum induced current at −10 mV testing voltage after administration (10 μM) vs before, >1 activating, <1 inhibiting; for ΔV1/2: shift of V1/2 of current activation curve, negative sign = left-ward shift, CHO cells
Description: The formulation of culture fluid for Chinese hamster […] (CHO) (Culture Collection of Chinese Academy of Sciences): 50/50 DMEM/F-12 (Cellgro, Mamassas, Va.), 10% fetal bovine serum (FBS) (Gibco, Australia) and 2 mM […] (Invitrogen). […] Lipofectamine2000™ agent (Invitrogen) was used for Transfection according to the protocol thereof. […] After cotransfection with GFP (green fluorescent protein), transfected cells could be determined under a fluorescence microscopy.
Whole-cell voltage-clamp recording was performed by using Axopatch-200B amplifier (Molecular Devices, Sunnyvale, Calif.) at room temperature. Borosilicate glass capillary tubes (World Precision Instruments, Sarasota, Fla.) were drawn into electrodes. The electric resistance of the electrodes filled with an intracellular fluid is 3 to 5 MΩ. […] During the recording, an extracellular fluid was continuously perfused by using a BPS perfusion system (ALA Scientific Instruments, Westburg, N.Y.). The formulation of the extracellular fluid was as follows: 140 mM NaCl, 5 mM KCl, 2 mM CaCl2, 1.5 mM MgCl2, 10 mM HEPES and 10 mM glucose (the pH value of the extracellular fluid was adjusted to 7.4 with NaOH). […] Resistors were connected in series to compensate 60 to 80% of signal loss. At present, multivoltage scheme was generally adopted, wherein the clamp voltage was set at −100 mV. Current was induced in cells by a series of 2000 ms stimulating voltage (from −90 mV up to +50 mV, with interval of 10 mV).
In the following table, V1/2 is the voltage at which 50% of cells were activated, ΔV1/2 is amount of a left-ward shift of V1/2, negative sign (−) represents a left-ward shift of the current activation curve and positive sign (+) represents a right-ward shift of the curve. I/I0 is the activation multiple, wherein, I0 is the maximum induced current produced under stimulation of −10 mV testing voltage, I is the maximum induced current produced under stimulation of −10 mV testing voltage after administration (10 μM), I/I0>1 represents activating activity, and I/I0<1 represents inhibiting activity. N is the number of tested cells. NT represents non-tested.

Structure (SMILES)	I/I0	ΔV1/2
CC(=O)Nc1ccc(NCc2ccc(F)cc2)cc1 [Compound K2]	1.50 ± 0.08	−3.0 ± 2.0 mV
C#CCN(Cc1ccc(F)cc1)c1ccc(NC(=O)OCc2ccccc2)cc1 [Compound K4]	2.09 ± 0.25	−11.5 ± 2.0 mV
C#CCN(Cc1ccc(F)cc1)c1ccc(NC(=O)OCC(C)C)cc1 [Compound K5]	1.23 ± 0.08	−14.3 ± 3.3 mV
CCCCCOC(=O)Nc1ccc(N(Cc2ccc(F)cc2)C(=O)OCCCCC)cc1 [Compound K6]	1.24 ± 0.02	−1.6 ± 3.0 mV
C=CCN(Cc1ccc(F)cc1)c1ccc(NC(=O)OCC)cc1 [Compound K7]	1.35 ± 0.27	−4.7 ± 2.0 mV
C#CCN(Cc1ccc(F)cc1)c1ccc(NC(=O)OCC)cc1 [Compound K8]	1.99 ± 0.37	−7.3 ± 2.5 mV
C#CCN(Cc1ccc(F)cc1)c1ccc(F)c(NC(=O)OC)c1 [Compound K10, methyl 2-fluoro-5-(N-parafluorobenzyl-N-propargyl-imino)-aniline formate]	2.75 ± 0.31	−18.7 ± 2.6 mV
C#CCN(Cc1cccc(F)c1)c1ccc(NC(=O)OC)cc1 [Compound K12]	2.33 ± 0.17	−21.1 ± 1.9 mV
C#CCN(Cc1ccccc1F)c1ccc(NC(=O)OC)cc1 [Compound K13]	2.31 ± 0.36	−7.6 ± 1.9 mV
C#CCN(Cc1ccc(F)c(C(F)(F)F)c1)c1ccccc1NC(=O)OC [Compound K14]	1.43 ± 0.04	−14.7 ± 2.1 mV
C#CCN(Cc1ccc(F)cc1)c1ccc(NC(=O)OC)c(F)c1 [Compound K15]	2.09 ± 0.31	−22.0 ± 1.5 mV
C#CCN(c1cccc(NC(=O)OC)c1)C(C)c1ccc(F)cc1 (stereo not shown) [Compound K16]	1.47 ± 0.10	−20.6 ± 4.5 mV
C#CCN(Cc1ccc(F)c(F)c1)c1ccc(NC(=O)OC)cc1 [Compound K19]	2.52 ± 0.23	−14.9 ± 2.7 mV
C#CCN(Cc1ccc(F)cc1)c1ccc(NC(=O)OC)c(NC(=O)OC)c1 [Compound K22, methyl 2-(methoxycarbonyl-imino)-4-(N-parafluorobenzyl-N-propargyl-imino)-aniline formate]	2.10 ± 0.35	−27.31 ± 3.9 mV
CC#CCN(Cc1ccc(F)cc1)c1ccc(NC(=O)OCC)c(NC(=O)OCC)c1 [Compound K23]	1.44 ± 0.14	−15.34 ± 3.8 mV
CCC#CCN(Cc1ccc(F)cc1)c1ccc(NC(=O)OCC)c(NC(=O)OCC)c1 [Compound K24]	1.2 ± 0.1	−1.87 ± 2.5 mV
C#CCN(Cc1ccc(F)cc1)c1ccc2[nH]c(=O)[nH]c2c1 [Compound K25, 5-(N-parafluorobenzyl-N-propargyl-imino)-benzimidazole-2-one]	1.8 ± 0.1	−5.8 ± 1.7 mV
CCOC(=O)Nc1ccc(N(CCCC(C)=O)Cc2ccc(F)cc2)cc1NC(=O)OCC [Compound K26]	1.25 ± 0.07	
C=CCOC(=O)Nc1ccc(N(Cc2ccc(F)cc2)CC(C)C)cc1NC(=O)OCC=C [Compound K27]	1.52 ± 0.17	
C=C(C)CN(Cc1ccc(F)cc1)c1ccc(NC(=O)OC)c(NC(=O)OC)c1 [Compound K28]	1.43 ± 0.05	
C=C(C)CN(Cc1ccc(F)cc1)c1ccc(NC(=O)OC(C)(C)C)c(NC(=O)OC(C)(C)C)c1 [Compound K29]	1.24 ± 0.10	
C=C(C)CN(Cc1ccc(F)cc1)c1ccc(NC(=O)OC(C)C)c(NC(=O)OC(C)C)c1 [Compound K30]	1.57 ± 0.25	
COC(=O)Nc1ccc(N(CC=C(C)C)Cc2ccc(F)cc2)cc1NC(=O)OC [Compound K31]	1.36 ± 0.13	
